Data taken from US10258614B2, “Compositions and methods for treating schizophrenia” (priority 2014, dated 2019).
Values joined by “and” are separate entries in the source; they are usually repeats but may differ in a detail not shown here. Identical values can stand only once. Counter-ions that a name gives are not always drawn. Like-named read-outs stand apart in the source and are kept apart here.

Columns and labels:
5-HT2A receptors [1] = molecular target: 5-HT2A receptors (Homo sapiens, UniProt P28223); test: In vitro receptor binding studies
sigma2 receptors [2] = molecular target: sigma2 receptors (Homo sapiens, UniProt Q5BJF2); test: In vitro receptor binding studies
[3] = test system: methamphetamine-induced hyperlocomotion; test: Methamphetamine-induced hyperlocomotion; format: in vivo, male Wistar rats; conditions: for methamphetamine-induced hyperlocomotion: male Wistar rats
Procedure: (§1) Compound (I) was tested in male Wistar rats in several behavioral paradigms designed to evaluate the potential for producing antipsychotic activity of drugs in humans. Compound (I) inhibited methamphetamine-, apomorphine-, and phencyclidine-induced hyperlocomotion in a similar manner to other antipsychotics.

[4] = test system: guinea pig papillary muscle
Text: (§2) The effects of Compound (I) on the cardiovascular system were examined in in vitro and in vivo studies.

IKr current = IKr current (Homo sapiens, UniProt Q12809); test: In vitro electrophysiology, cultured cells expressing cloned cardiac ion channels
Text: as §2

in vivo [5] = test: in vivo; set-up: species or system monkeys; conditions: monkey
Procedure: (§3) Pharmacokinetic (PK) studies of Compound (I) have been performed particularly in rats and monkeys. Following a single oral administration, Compound (I) was rapidly absorbed. Plasma radioactivity peaked between 0.63 and 2.75 hours in male rats, and between 3 and 3.5 hours in male monkeys. […] The elimination half-lives of radioactivity from plasma were 45.13 to 51.52 hours in rats and 174.74 to 184.78 hours in monkeys. The elimination half-lives of unchanged Compound (I) were 1.68 to 2.06 hours in rats, and 1.68 to 2.57 hours in monkeys.
(§4) After single administration of BFB-520 in monkeys, exposure levels of BFB-520, Compound (I) and BFB-999 increased with a dose increment larger than the proportionate one. […] Finally, the brain transfer of Compound (I) was studied with male rats after oral administration (10 mg/kg). […] The Kp value (brain/plasma concentration ratio) was 1.38 mL/g.
(§5) The major route of elimination of radioactivity in rats and monkeys following a single oral or intravenous administration was via the feces. The excretion to bile was 44.2% within 48 hours after a single oral administration to bile duct cannulated rats. Urinary excretion rates of radioactivity were about 35% in rats and monkeys. […] The enterohepatic circulation rate was determined to be about 27% after intraduodenal administration of bile samples from ^14C-Compound (I)-treated rats.

[6] = Part 1 single dose MR formulation pharmacokinetic study in healthy CYP2D6 EM male subjects; format: in vivo, human; set-up: Cmax increase, food effect: unit not given beside the values; conditions: for AUC(0-t) / Cmax / half-life: plasma
Text: Part 1 of this study was designed to characterize and compare the pharmacokinetic (PK) profile of Compound (I) when administered as MR formulations, and food effects, following a single dose administration in a 6-way, within subject, crossover design.
Part 1 of the study is an open-label, non-randomized, single dose, 6-period crossover design in 12 healthy CYP 2D6 EM male subjects. For Part 1, subjects will receive the following regimens in a non-randomised manner:
Regimen A: MR Formulation prototype 1: 32 mg Compound (I) slow release administered in the fasted state
A Two-Part Study Designed to Evaluate the Pharmacokinetic Profile of Compound (I) and its Main Metabolites Following Single and Multiple Dose Modified Release Prototype Formulation Administration in Healthy CYP2D6 Extensive Metabolizer Male and Female Subjects, and to Evaluate the Relationship Between the Pharmacokinetic Profile of Compound (I) and its Main Metabolites and Cardiovascular Parameters.

QT/QTc interval = test: Analysis of relationship between QT/QTc and plasma concentrations; format: in vivo, human
Procedure: Increases in QTc interval were observed and seemed to be related to the exposure to Compound (I) and its metabolite BFB-520. […] A further analysis of the relationship between QT/QTc and Compound (I) and BFB-520 concentrations was performed.

[7] = test system: human liver microsomes, cytochromes P450
al-adrenergic receptors = test: In vitro receptor binding studies
DA receptors = test: In vitro receptor binding studies; conditions: read-out: IC50 (affinity for DA receptors)
5-HT2A receptors [8] = test: In vivo functional tests
Text: (§6) In in vivo functional tests, Compound (I) acted as an antagonist at sigma2 and 5-HT2A receptors.

sigma2 receptors [9] = test: In vivo functional tests
Text: as §6

[10] = test system: dopamine turnover, DA metabolites DOPAC and HVA; test: Dopamine turnover and DA metabolite output after oral administration; format: in vivo
Text: as §6

[11] = test system: apomorphine-induced hyperlocomotion; test: Apomorphine-induced hyperlocomotion; format: in vivo; conditions: male Wistar rats
Procedure: as §1

[12] = test system: phencyclidine-induced hyperlocomotion; test: Phencyclidine-induced hyperlocomotion; format: in vivo; conditions: male Wistar rats
Procedure: as §1

[13] = test system: PCP-induced social interaction impairment; test: PCP-induced social interaction impairment; format: in vivo, male Wistar rats; conditions: after repeated administration
[14] = test system: spontaneous alternation behavior impairment induced by MK-801; test: Impairment of spontaneous alternation behavior induced by MK-801; set-up: species or system male Wistar rats; conditions: rat, in vivo
rats = test: Safety pharmacology studies (general activity and behavior, CNS, respiratory, gastrointestinal, water and electrolyte excretion); format: in vivo
Procedure: In a series of safety pharmacology studies, the effects of Compound (I) on general activity and behavior, the CNS, respiratory function, gastrointestinal system, and water and electrolyte excretion were examined in rats at an oral dose range of 1 to 30 mg/kg Compound (I) induced various changes in general activity and behavior. These clinical signs were observed between 0.25 to 4 hours post-dosing and disappeared by 6 hours post-dosing. Compound (I) inhibited CNS function and decreased thresholds for electroshock-induced convulsion.

in vivo [15] = test: in vivo; set-up: species or system rats; conditions: rat
Procedure: as §3
Food and gender effects were also assessed in rats.
as §5

in vivo [16] = test: in vivo; set-up: species or system male rats; conditions: rat, po, 10 mg/kg
Procedure: as §4

[17] = test system: human P450 isoforms (CYP1A2, 2A6, 2B6, 2C8/9, 2C19, 2E1 and 3A4); test: Inhibition of human P450 isoforms; format: in vitro ADME
CYP2D6 = CYP2D6 (Homo sapiens, UniProt P10635); test: Inhibition of human P450 isoforms; format: in vitro ADME
sleep architecture = test: CYR-101C01 Phase 2a study, sleep recordings (PSG) and PSQI; format: in vivo, human

IKr current, sequence (Q12809 whole entry): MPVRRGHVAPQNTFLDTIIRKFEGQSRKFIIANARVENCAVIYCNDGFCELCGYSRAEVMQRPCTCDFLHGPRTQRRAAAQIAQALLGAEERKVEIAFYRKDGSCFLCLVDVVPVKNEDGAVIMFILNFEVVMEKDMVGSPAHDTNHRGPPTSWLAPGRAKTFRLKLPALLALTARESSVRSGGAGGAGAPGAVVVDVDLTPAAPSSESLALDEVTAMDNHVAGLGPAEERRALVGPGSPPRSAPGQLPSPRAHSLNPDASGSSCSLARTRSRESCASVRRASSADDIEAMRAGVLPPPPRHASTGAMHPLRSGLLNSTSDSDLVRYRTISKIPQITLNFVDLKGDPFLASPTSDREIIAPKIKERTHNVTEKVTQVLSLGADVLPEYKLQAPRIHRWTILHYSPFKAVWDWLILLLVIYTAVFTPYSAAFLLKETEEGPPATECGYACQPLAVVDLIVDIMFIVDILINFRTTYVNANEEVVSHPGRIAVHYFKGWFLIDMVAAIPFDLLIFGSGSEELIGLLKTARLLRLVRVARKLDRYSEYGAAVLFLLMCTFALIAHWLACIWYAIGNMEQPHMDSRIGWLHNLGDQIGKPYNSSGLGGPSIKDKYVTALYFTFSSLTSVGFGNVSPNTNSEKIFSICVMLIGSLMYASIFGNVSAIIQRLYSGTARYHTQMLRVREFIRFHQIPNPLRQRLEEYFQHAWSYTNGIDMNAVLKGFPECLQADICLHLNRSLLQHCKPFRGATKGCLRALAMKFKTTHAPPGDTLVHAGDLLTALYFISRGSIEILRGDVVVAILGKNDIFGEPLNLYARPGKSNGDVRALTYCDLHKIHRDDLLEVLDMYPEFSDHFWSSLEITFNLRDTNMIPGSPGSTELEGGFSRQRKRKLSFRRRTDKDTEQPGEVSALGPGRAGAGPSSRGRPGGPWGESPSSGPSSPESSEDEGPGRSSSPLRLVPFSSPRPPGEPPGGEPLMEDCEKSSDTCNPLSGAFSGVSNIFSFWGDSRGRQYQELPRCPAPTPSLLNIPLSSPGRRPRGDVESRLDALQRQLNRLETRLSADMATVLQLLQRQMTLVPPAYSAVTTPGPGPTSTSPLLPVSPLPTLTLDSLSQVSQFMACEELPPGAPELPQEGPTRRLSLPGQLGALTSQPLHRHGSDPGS
sigma2 receptors (Homo sapiens, UniProt Q5BJF2), sequence (Q5BJF2 whole entry): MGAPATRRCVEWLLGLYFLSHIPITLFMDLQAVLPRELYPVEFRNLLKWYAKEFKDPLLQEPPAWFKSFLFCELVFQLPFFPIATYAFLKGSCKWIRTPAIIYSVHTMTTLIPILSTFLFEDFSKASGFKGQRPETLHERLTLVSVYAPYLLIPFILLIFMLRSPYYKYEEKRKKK
5-HT2A receptors (Homo sapiens, UniProt P28223), sequence (P28223 whole entry): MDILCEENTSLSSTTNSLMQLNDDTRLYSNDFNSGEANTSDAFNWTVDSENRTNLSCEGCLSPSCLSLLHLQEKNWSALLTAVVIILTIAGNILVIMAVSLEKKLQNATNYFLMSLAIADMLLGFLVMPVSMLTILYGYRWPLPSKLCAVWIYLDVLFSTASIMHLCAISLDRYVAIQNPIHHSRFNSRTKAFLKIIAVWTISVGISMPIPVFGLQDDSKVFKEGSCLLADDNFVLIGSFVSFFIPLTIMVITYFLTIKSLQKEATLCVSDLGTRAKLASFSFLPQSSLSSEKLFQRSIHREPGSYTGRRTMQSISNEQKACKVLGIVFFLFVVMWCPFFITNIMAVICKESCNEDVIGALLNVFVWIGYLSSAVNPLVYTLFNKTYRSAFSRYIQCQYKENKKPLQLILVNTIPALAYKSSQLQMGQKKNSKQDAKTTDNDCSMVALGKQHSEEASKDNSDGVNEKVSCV
CYP2D6, sequence (P10635 whole entry, canonical isoform): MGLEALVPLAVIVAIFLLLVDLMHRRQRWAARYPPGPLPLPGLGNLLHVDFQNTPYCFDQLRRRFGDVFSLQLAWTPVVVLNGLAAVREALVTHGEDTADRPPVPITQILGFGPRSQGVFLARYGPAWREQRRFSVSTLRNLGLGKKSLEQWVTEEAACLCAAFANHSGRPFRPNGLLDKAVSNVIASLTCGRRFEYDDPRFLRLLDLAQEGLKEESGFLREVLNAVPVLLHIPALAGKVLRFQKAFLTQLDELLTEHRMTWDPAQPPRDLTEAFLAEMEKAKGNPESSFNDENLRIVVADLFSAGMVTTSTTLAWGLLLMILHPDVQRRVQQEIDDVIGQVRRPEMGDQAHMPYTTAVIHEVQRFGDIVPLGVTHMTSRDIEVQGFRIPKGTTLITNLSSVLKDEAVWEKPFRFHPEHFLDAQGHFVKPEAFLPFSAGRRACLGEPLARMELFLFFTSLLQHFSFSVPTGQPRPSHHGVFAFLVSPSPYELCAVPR

With `O=C1c2ccccc2CN1CC1CCN(CC(O)c2ccc(F)cc2)CC1` (stereo not drawn) [BFB-520] the “affinity for 5-HT2A receptors compared with Compound (I)” value (5-HT2A receptors [1]) was “lower”, the “affinity for σ2 receptors compared with Compound (I)” value (sigma2 receptors [2]) was “lower affinity” and the methamphetamine-induced hyperlocomotion [3] was “inhibited”. For the same compound, the “ED50 compared with Compound (I)” value ([3]; methamphetamine-induced hyperlocomotion) was “higher than that of Compound (I)”, the “concentration that prolonged the action potential duration (APD)” value [4] was no less than 100 nM and the IC50 (IKr current) was 181 nM. For the same compound, the “time to maximum concentration post-dosing” value (in vivo [5]) was no more than 4 h, the “Half-life Fed to Fasted ratio” value ([6]; human, in vivo) was 0.8 and the “dose proportionality of PK” value ([6]; human, in vivo) was “less so”. For the same compound, the “Cmax that should not be exceeded to avoid QT prolongation” value (QT/QTc interval; human, in vivo) was no more than 12 ng/mL and the metabolizing enzymes [7] was “metabolized by CYP2D6 and CYP3A4”.

`O=C(CN1CCC(CN2Cc3ccccc3C2=O)CC1)c1ccc(F)cc1` [Compound (I), 2-((1-(2-(4-Fluorophenyl)-2-oxoethyl)piperidin-4-yl)methyl)isoindolin-1-one monohydrochloride dihydrate] gave a Ki (5-HT2A receptors [1]; 5-HT2A receptor) of 7.53 nM, a Ki (al-adrenergic receptors) of 14.4 nM and a Ki (sigma2 receptors [2]; sigma2 receptor) of 8.19 nM. The IC50 (DA receptors) was greater than 1000 nM, the “functional activity at 5-HT2A receptors” value (5-HT2A receptors [8]) was “antagonist” and the “functional activity at sigma2 receptors” value (sigma2 receptors [9]) was “antagonist”. The monoamine levels ([10]; effective dose levels in animal models of antipsychotic activity) was “did not affect”, the “dopamine turnover in the accumbens and striatum” value ([10]; oral administration) was “slightly increased” and the “output of DA metabolites such as DOPAC and HVA in prefrontal cortex” value ([10]; oral, high dose levels) was “increased the output”. For the same compound, the methamphetamine-induced hyperlocomotion [3] was “inhibited”, the apomorphine-induced hyperlocomotion [11] was “inhibited” and the phencyclidine-induced hyperlocomotion [12] was “inhibited”. The “PCP-induced social interaction impairment” value [13] was “significantly ameliorated”, the “impairment of spontaneous alternation behavior induced by MK-801” value [14] was “improved” and the CNS function (rats; oral 1 to 30 mg/kg) was “inhibited”. For the same compound, the “thresholds for electroshock-induced convulsion” value (rats; oral 1 to 30 mg/kg) was “decreased”, the “time by which clinical signs disappeared post-dosing” value (rats; oral 1 to 30 mg/kg) was no more than 6 h and the “effects at high doses” value (rats; oral, high doses (>10 mg/kg)) was “affected respiratory function, inhibited gastric emptying, damaged the gastrointestinal membrane, decreased urine volume, and increased urine potassium excretion”. The IC50 (IKr current) was 325 nM, the “recovery of given radioactivity in carcass” value (in vivo [15]; male, 168 h) was 0.7% and the “time of peak plasma radioactivity” value (in vivo [15]; male, po) was 0.63 to 2.75 h. The enterohepatic circulation rate (in vivo [15]) was “about 27%”, the “pharmacokinetic parameters for total radioactivity, female vs male rats” value (in vivo [15]) was “comparable” and the “urinary excretion rate of radioactivity” value (in vivo [15]) was “about 35%”. For the same compound, the bioavailability (in vivo [15]; po) was 52.4 to 64.5%, the half-life (in vivo [15]; po) was 1.68 to 2.06 h and the oral absorption rate (in vivo [15]; po) was 90.3-94.7%. For the same compound, the transfer into milk (in vivo [15]; po) was “rapidly transferred into milk and were slowly eliminated”, the “time of peak plasma radioactivity” value (in vivo [5]; male, po) was 3 to 3.5 h and the “urinary excretion rate of radioactivity” value (in vivo [5]) was “about 35%”. For the same compound, the bioavailability (in vivo [5]; po) was no less than 90%, the half-life (in vivo [5]; po) was 1.68 to 2.57 h and the oral absorption rate (in vivo [5]; po) was 70.0-99.9%. For the same compound, the Cmax (in vivo [16]; male) was 3160 ng/mL and 4950 ng/g, the “Kp value (brain/plasma concentration ratio)” value (in vivo [16]) was 1.38 mL/g and the “inhibitory effects on human P450 isoforms (CYP1A2, 2A6, 2B6, 2C8/9, 2C19, 2E1 and 3A4)” value [17] was “No remarkable inhibitory effects”. The “inhibitory effect on CYP2D6” value (CYP2D6) was “weak inhibitory effect”, the “dose proportionality of PK” value ([6]; MR formulation under fasted conditions) was “generally dose proportional” and the “Cmax increase, food effect” value ([6]; MR formulation, fed vs fasted) was roughly 2 ×. The “Half-life Fed to Fasted ratio” value ([6]; MR formulation, fed vs fasted) was 0.5, the “Tiag, Median” value ([6]; Period 1, 32 mg Slow Release, Fasted, plasma analyte) was 0 h and the Tmax ([6]; male, human, oral, Period 1, 32 mg Slow Release, Fasted, plasma analyte, read-out: Tmax, Median) was 2.25 h. It also gave an AUC(0-t) ([6]; male, human, oral, 32 mg, Period 1, 32 mg Slow Release, Fasted, plasma analyte, read-out: AUClast, Mean) of 212 ng·h/mL, an AUC(0-t) ([6]; male, human, oral, 32 mg, Period 1, 32 mg Slow Release, Fasted, plasma analyte, read-out: AUClast, Median) of 220 ng·h/mL and a Cmax ([6]; male, human, oral, 32 mg, Period 1, 32 mg Slow Release, Fasted, plasma analyte, read-out: Cmax, Mean) of 22.5 ng/mL. For the same compound, the Cmax ([6]; male, human, oral, 32 mg, Period 1, 32 mg Slow Release, Fasted, plasma analyte, read-out: Cmax, Median) was 23.7 ng/mL, the half-life ([6]; male, human, oral, 32 mg, Period 1, 32 mg Slow Release, Fasted, plasma analyte, read-out: t½, Mean (converted)) was 6.26 h and the half-life ([6]; male, human, oral, 32 mg, Period 1, 32 mg Slow Release, Fasted, plasma analyte, read-out: t½, Median (converted)) was 5.35 h. For the same compound, the half-life ([6]; male, human, oral, MR formulation under fasted conditions, read-out: Half-life) was 3 to 8 h, the Cmax (QT/QTc interval; human plasma, read-out: Cmax that should not be exceeded to avoid QT prolongation) was no more than 80 ng/mL and the “sleep initiation parameters (sleep onset latency, latency to persistent sleep)” value (sleep architecture; patients) was “improved”. For the same compound, the “slow wave sleep (SWS) in the first third of the night” value (sleep architecture; patients, PSG) was “significantly increased”, the “slow wave sleep (SWS) in the last third of the night” value (sleep architecture; patients, PSG) was “decreased” and the “subjective sleep quality as measured by PSQI” value (sleep architecture; vs placebo) was “improvement was greater with Compound (I) than with placebo although not statistically significant”. The metabolizing enzymes [7] was “mainly metabolized by enzymatic reaction other than CYP isoforms”.
